Laboratory results taken from patent US20190167568A1, “Transdermal Drug Delivery System and Method for Using Same” (SENJU USA, INC., priority 2016, published 2019).

Conditions: pH 8
From the text: In the present invention, the distribution coefficient (octanol/water distribution coefficient) may be adopted as the index of “water soluble” and “liposoluble” in the “water soluble steroid” and the “liposoluble steroid.” The distribution coefficient can be expressed in log D in consideration of the influence of pH, and water solubility is indicated by a minus value while liposolubility is indicated by a plus value.
The distribution coefficient can be obtained according to the method of JIS […] or JIS […].

Substance | distribution coefficient (log D)
dexamethasone metasulfobenzoate sodium | −2
prednisolone sodium phosphate | 0
